Here are results for 11 compounds from patent US9682990B2, “Alcohol-, diol-, and carbohydrate-substituted indenoisoquinolines as topoisomerase I inhibitors” (Purdue Research Foundation, priority 2011, dated 2017).

The structures appear in SMILES notation. Like-named read-outs stand apart in the source and are kept apart here.

Series [1] relates to all human cancer cell lines successfully tested. The experiment in a line: NCI-60 cell line assay, mean-graph midpoint. It counts as cell-based. To be noted: for GI50: read-out: MGM GI50; for MGM (mean graph midpoint for growth inhibition): all human cancer cell lines tested, 10^−8 to 10^−4 molar. The procedure: Biological Results. The indenoisoquinoline analogues were tested for antiproliferative activity in the National Cancer Institute's Developmental Therapeutics Assay against cell lines derived from approximately 60 different human tumors. […] The cytotoxicities of the compounds to cultured cancer cells were measured in the National Cancer Institute's 60 cell line assay (a.k.a. NCI-60).

Series [2] deals with Tyrosyl-DNA phosphodiesterase 1 (TDP1) (Homo sapiens, UniProt Q9NUW8). Put plainly: TDP1 inhibition. It counts as biochemical. To be noted: scores correspond to IC50 ranges. The text has this: Tyrosyl-DNA phosphodiesterase 1 (TDP1) is a DNA repair enzyme that repairs cytotoxic DNA damage induced by Top1 inhibitors.
Chain of Tyrosyl-DNA phosphodiesterase 1 (TDP1) (Q9NUW8 whole entry, species assumed): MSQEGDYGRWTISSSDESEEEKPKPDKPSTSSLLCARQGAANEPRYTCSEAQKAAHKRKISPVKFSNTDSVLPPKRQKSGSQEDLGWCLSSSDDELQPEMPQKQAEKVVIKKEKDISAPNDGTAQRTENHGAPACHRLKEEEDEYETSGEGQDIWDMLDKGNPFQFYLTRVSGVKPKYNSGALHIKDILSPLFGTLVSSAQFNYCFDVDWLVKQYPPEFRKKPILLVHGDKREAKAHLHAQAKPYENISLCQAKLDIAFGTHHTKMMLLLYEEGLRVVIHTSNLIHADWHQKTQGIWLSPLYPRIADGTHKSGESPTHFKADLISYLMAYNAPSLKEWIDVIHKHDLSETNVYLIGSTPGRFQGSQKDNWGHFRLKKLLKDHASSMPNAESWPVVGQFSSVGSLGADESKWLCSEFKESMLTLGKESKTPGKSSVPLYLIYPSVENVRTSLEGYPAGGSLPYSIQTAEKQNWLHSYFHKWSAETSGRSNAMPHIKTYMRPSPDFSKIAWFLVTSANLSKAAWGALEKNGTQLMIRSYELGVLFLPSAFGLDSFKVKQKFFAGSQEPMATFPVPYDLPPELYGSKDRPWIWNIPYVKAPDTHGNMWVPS
The next series deals with HOP-62 (Lung). The experiment in a line: NCI Developmental Therapeutics antiproliferative assay, HOP-62. The format is cell-based, human. As to the method:
(§1) Biological Results. The indenoisoquinoline analogues were tested for antiproliferative activity in the National Cancer Institute's Developmental Therapeutics Assay against cell lines derived from approximately 60 different human tumors.

For the next series, the system named is SF-539 (CNS). The experiment in a line: NCI Developmental Therapeutics antiproliferative assay, SF-539. The format is cell-based, human. The procedure: (§2) Biological Results. The indenoisoquinoline analogues were tested for antiproliferative activity in the National Cancer Institute's Developmental Therapeutics Assay against cell lines derived from approximately 60 different human tumors. […] Results are reported in Table 2 as GI50 values for selected cell lines, and overall antiproliferative potency is quantified as a mean-graph midpoint (MGM).

The subject of another series is UACC-62 (Melanoma). Put plainly: NCI Developmental Therapeutics antiproliferative assay, UACC-62. It counts as cell-based, human. As to the method: as §1
Another series concerns OVCAR-3 (Ovarian). Put plainly: NCI Developmental Therapeutics antiproliferative assay, OVCAR-3. The format is cell-based, human. As to the method:
as §2

The test system of a further series is SN12C (Renal). The experiment in a line: NCI Developmental Therapeutics antiproliferative assay, SN12C. The format is cell-based, human. The procedure:
as §2

The subject of the next series is DU-145 (Prostate). The experiment in a line: NCI Developmental Therapeutics antiproliferative assay, DU-145. The format is cell-based, human. The procedure:
as §1

The test system of another series is MCF7 (Breast). Put plainly: NCI Developmental Therapeutics antiproliferative assay, MCF7. It counts as cell-based, human. The procedure: as §2
Another series has as its target T1, Human recombinant Top1 (Homo sapiens, UniProt P11387).
T1 sequence (P11387 1-765): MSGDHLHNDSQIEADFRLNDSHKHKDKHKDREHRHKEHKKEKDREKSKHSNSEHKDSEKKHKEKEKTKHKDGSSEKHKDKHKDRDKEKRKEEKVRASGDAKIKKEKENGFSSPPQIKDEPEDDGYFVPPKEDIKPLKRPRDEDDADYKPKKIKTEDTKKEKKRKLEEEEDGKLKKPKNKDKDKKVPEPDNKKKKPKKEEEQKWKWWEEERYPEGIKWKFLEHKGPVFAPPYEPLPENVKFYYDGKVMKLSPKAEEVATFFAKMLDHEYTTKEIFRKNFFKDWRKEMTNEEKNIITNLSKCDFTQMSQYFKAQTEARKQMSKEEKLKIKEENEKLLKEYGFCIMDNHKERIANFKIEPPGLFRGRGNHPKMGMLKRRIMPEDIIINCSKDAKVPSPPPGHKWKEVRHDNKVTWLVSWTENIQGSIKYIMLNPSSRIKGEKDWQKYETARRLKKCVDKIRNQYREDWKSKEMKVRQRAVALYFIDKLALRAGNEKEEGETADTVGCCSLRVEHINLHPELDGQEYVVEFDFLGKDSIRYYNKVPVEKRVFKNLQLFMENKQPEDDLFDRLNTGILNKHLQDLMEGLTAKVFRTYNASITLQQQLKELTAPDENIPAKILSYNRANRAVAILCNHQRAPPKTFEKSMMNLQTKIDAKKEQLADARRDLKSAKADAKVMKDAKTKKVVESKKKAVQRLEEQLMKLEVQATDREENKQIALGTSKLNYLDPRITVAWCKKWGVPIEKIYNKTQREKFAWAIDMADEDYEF
The experiment in a line: Top1-mediated DNA cleavage assay. The settings on record: scale relative to 1 μM camptothecin.

Another series deals with HCT-116 (Colon). Put plainly: NCI Developmental Therapeutics antiproliferative assay, HCT-116. The format is cell-based, human. The procedure: as §1
Series [3] deals with cell lines derived from approximately 60 different human tumors. The experiment in a line: NCI initial one-dose screening assay. It counts as cell-based. To be noted: percentage of cell growth, one-dose assay at 10 μM.
The mark [4] stands for this setting: Homo sapiens, Table 3, NCI-60, unit inferred.
The mark [5] stands for this setting: Homo sapiens, HOP-62, 50% growth inhibition, read-out: Cytotoxicity (GI50) Lung HOP-62.
[6] abbreviates: Homo sapiens, SF-539, 50% growth inhibition, read-out: Cytotoxicity (GI50) CNS SF-539.
Setting [7] is: Homo sapiens, UACC-62, 50% growth inhibition, read-out: Cytotoxicity (GI50) Melanoma UACC-62.
Where [8] appears, read: Homo sapiens, OVCAR-3, 50% growth inhibition, read-out: Cytotoxicity (GI50) Ovarian OVCAR-3.
The mark [9] stands for this setting: Homo sapiens, SN12C, 50% growth inhibition, read-out: Cytotoxicity (GI50) Renal SN12C.
Where [10] appears, read: Homo sapiens, DU-145, 50% growth inhibition, read-out: Cytotoxicity (GI50) Prostate DU-145.
[11] abbreviates: Homo sapiens, MCF7, 50% growth inhibition, read-out: Cytotoxicity (GI50) Breast MCF7.
[12] abbreviates: Homo sapiens, HCT-116, 50% growth inhibition, read-out: Cytotoxicity (GI50) Colon HCT-116.

As usually defined, the GI50 is the concentration giving 50% growth inhibition. The IC50 is the concentration needed to halve the response being measured. Read a low IC50 as greater potency in that assay. The term melting point denotes the temperature of the solid-liquid transition.

Method for Human recombinant Top1: Topoisomerase I-Mediated DNA Cleavage Reactions. Human recombinant Top1 was purified from Baculovirus as previously described. […] Unincorporated [32]P-dGTP was removed using mini Quick Spin DNA columns (Roche, Indianapolis, Ind.), and the eluate containing the 3'-end-labeled DNA substrate was collected. […] The reactions were terminated by adding SDS (0.5% final concentration) followed by the addition of two volumes of loading dye (80% formamide, 10 mM sodium hydroxide, 1 mM sodium EDTA, 0.1% xylene cyanol, and 0.1% bromphenol blue). Aliquots of each reaction were subjected to 20% denaturing PAGE. Gels were dried and visualized by using a Phosphoimager and ImageQuant software (Molecular Dynamics).

Take `O=C1c2cc3c(cc2-c2c1c1cc(Cl)c(Cl)cc1c(=O)n2C[C@H](O)CO)OCO3`: the concentration for 50% growth inhibition (GI50) in series [1] (setting [4]) was 0.013 µM. For the same compound, in [2], the concentration for half-maximal inhibition (IC50) was over 111 µM.

Compound `O=C1c2cc3c(cc2-c2c1c1ccc(Cl)cc1c(=O)n2C[C@H](O)[C@H](O)[C@H](O)CO)OCO3` yielded an IC50 in [2] of over 111 µM.

For the compound `O=C1c2cc3c(cc2-c2c1c1ccc(F)cc1c(=O)n2C[C@H](O)[C@@H](O)[C@H](O)CO)OCO3`, the 50% growth inhibitory concentration (GI50) in [1] (setting [4]) is 0.078 µM. For the same compound, the half-inhibitory concentration (IC50) in series [2] is over 111 µM.

In the case of `O=C1c2cc3c(cc2-c2c1c1ccc(F)cc1c(=O)n2C[C@H](O)CO)OCO3`, the GI50 in series [1] (setting [4]) was 0.105 µM. Moreover, the IC50 in [2] was over 111 µM.

Consider `O=C1c2cc3c(cc2-c2c1c1cc(F)c(F)cc1c(=O)n2C[C@H](O)CO)OCO3`, for which, in series [1] (setting [4]), the GI50 turned out to be 0.068 µM. In series [2], the IC50 was over 111 µM.

On to `O=C1c2ccccc2-c2c1c1ccccc1c(=O)n2C[C@H](O)CO` [Compound 12a, (2′S)-5,6-Dihydro-6-[(2′,3′-dihydroxypropyl)]-5,11-dioxo-11H-indeno[1,2-c]isoquinoline], for which the GI50 was 5.01 µM in the series with HOP-62 (Lung) (setting [5]); 7.41 µM in the series on SF-539 (CNS) (setting [6]); 5.37 µM with UACC-62 (Melanoma) (setting [7]); 14.5 µM in the series on OVCAR-3 (Ovarian) (setting [8]); 6.92 µM in the series on SN12C (Renal) (setting [9]); 5.75 µM in the series with DU-145 (Prostate) (setting [10]). Also, the GI50 with MCF7 (Breast) (setting [11]) was 4.9 µM. In series [1], the “MGM (mean graph midpoint for growth inhibition)” value was 8.71 µM. Moreover, on Human recombinant Top1, the Top1 inhibitory activity entry was “+++ (+++, between 75% and 95% activity)”.

In turn, `O=C1c2ccccc2-c2c1c1ccccc1c(=O)n2C[C@@H](O)CO` [Compound 12b, (2′R)-5,6-Dihydro-6-[(2′,3′-dihydroxypropyl)]-5,11-dioxo-11H-indeno[1,2-c]isoquinoline] yielded a melting point of 200 to 205 °C. Moreover, the GI50 in the series on HOP-62 (Lung) (setting [5]) was 3.79 µM. Moreover, the GI50 with HCT-116 (Colon) (setting [12]) stood at 4.47 µM. In addition, in the series with SF-539 (CNS) (setting [6]), the concentration for 50% growth inhibition (GI50) was 5.72 µM. Further, the GI50 with UACC-62 (Melanoma) (setting [7]) turned out to be 4.36 µM. Moreover, in the series on OVCAR-3 (Ovarian) (setting [8]), the 50% growth inhibitory concentration (GI50) stood at 16.1 µM. Further, the GI50 with SN12C (Renal) (setting [9]) was determined as 3.77 µM. Further, in the series on DU-145 (Prostate) (setting [10]), the 50% growth inhibitory concentration (GI50) was found to be 2.34 µM. Also, the GI50 in the series on MCF7 (Breast) (setting [11]) stood at 3.04 µM. In addition, the “MGM (mean graph midpoint for growth inhibition)” value in series [1] was found to be 6.24 ± 0.22 µM.

`O=C1c2ccccc2-c2c1c1ccc([N+](=O)[O-])cc1c(=O)n2C[C@H](O)[C@@H](O)[C@H](O)[C@H](O)CO` [Compound 19, (2′S,3′R,4′R,5′R)-5,6-Dihydro-6-(2′,3′,4′,5′,6′-pentahydroxyhexyl)-3-nitro-5,11-dioxo-11H-indeno[1,2-c]isoquinoline]: the GI50 came to 7.35 µM with HOP-62 (Lung) (setting [5]); 5.08 µM with HCT-116 (Colon) (setting [12]); 2.61 µM in the series on SF-539 (CNS) (setting [6]); 2.98 µM in the series with UACC-62 (Melanoma) (setting [7]); 4.26 µM with OVCAR-3 (Ovarian) (setting [8]); 17.7 µM in the series with SN12C (Renal) (setting [9]). Moreover, the GI50 was 4.76 µM in the series with DU-145 (Prostate) (setting [10]) and 0.88 µM with MCF7 (Breast) (setting [11]). For the same compound, in series [1], the “MGM (mean graph midpoint for growth inhibition)” value is 4.60 ± 0.53 µM. For the same compound, the “Growth Percent” value in series [3] turned out to be 58.05%.

On to `O=C(CO)Cn1c2c(c3ccccc3c1=O)C(=O)c1ccccc1-2` [Compound 25, 5,6-Dihydro-6-(3′-hydroxy-2′-oxopropyl)-5,11-dioxo-11H-indeno[1,2-c]isoquinoline], for which the GI50 in the series on HOP-62 (Lung) (setting [5]) was found to be 40.7 µM; in the series with HCT-116 (Colon) (setting [12]), 30.9 µM; in the series with SF-539 (CNS) (setting [6]), 20 µM; with UACC-62 (Melanoma) (setting [7]), 58.9 µM; in the series with OVCAR-3 (Ovarian) (setting [8]), 5.23 µM; with SN12C (Renal) (setting [9]), 81.3 µM. Further, the results for the GI50 in the series on DU-145 (Prostate) (setting [10]) and with MCF7 (Breast) (setting [11]) were 17.8 µM and 32.3 µM, respectively. Moreover, in series [1], the “MGM (mean graph midpoint for growth inhibition)” value is 20.9 µM. Moreover, the “Growth Percent” value in series [3] was determined as 72.36%.

`NC[C@H](O)Cn1c2c(c3ccccc3c1=O)C(=O)c1ccccc1-2` [Compound 27d, (2′RS)-5,6-Dihydro-6-(3′-amino-2′-hydroxypropyl)-5,11-dioxo-11H-indeno[1,2-c]isoquinoline]: the GI50 turned out to be 0.276 µM with HOP-62 (Lung); 0.263 µM in the series with HCT-116 (Colon); 0.344 µM with SF-539 (CNS); 0.318 µM in the series on UACC-62 (Melanoma); 1.32 µM with OVCAR-3 (Ovarian); 0.206 µM in the series with SN12C (Renal). For the same compound, the GI50 in the series with DU-145 (Prostate) is 0.13 µM; in the series with MCF7 (Breast), 0.198 µM; in series [1], 0.348 µM. Besides, the “MGM (mean graph midpoint for growth inhibition)” value in [1] turned out to be 0.348 ± 0.109 µM. Also, the “Growth Percent” value in [3] was −23.49%.

As for `O=C1c2cc3c(cc2-c2c1c1ccc(Cl)cc1c(=O)n2C[C@H](O)CO)OCO3`, the 50% growth inhibitory concentration (GI50) in [1] (setting [4]) was determined as 0.042 µM. Also, the concentration for half-maximal inhibition (IC50) in series [2] was over 111 µM.
